Experimental data as given in US6681132B1, “Sodium magnetic reasonance imaging used in diagnosing tumors and assessing response to treatment” (The Trustees of Columbia University in the City of New York, priority 1999, dated 2004).

Assays:
Assay type in all cases: cell-based, human
PC3 cells = test: Free [Nai] with SBFI/AM in 96 well plates, fluorescent plate reader; conditions: for earliest time of increase of mean SBFI ratio ([Nai]): 10 nM taxotere or 10 μg/ml VP-16 etoposide
Description: For ion measurements (panels C & D), plates were run on a Fluoroskan II fluorescent plate reader (Titertek) using Titertek's computer Interface. Fura II loaded wells (panel D) had measured fluorescence intensities between 15,000 and 25,000 units whereby dye free wells had values ˜100 and 500. The wells with SBFI/AM loaded cells (panel C) had intensities between 4,000 and 9,000 units. Two excitation values were used for each well measurement. Ratios were derived by dividing fluorescent intensity at 345 nm excitation by that at 390 nm, both with a 508 nm mission filter. For all plates, dye free wells were examined for both control and drug treated cells, and served as background values for each wavelength. For [Cai] experiments a second means of determining background fluorescence, which gave statistically similar results, was exposure to 6 mM MnCl2 following the initial measurement. […] Backgrounds were subtracted from each cell in the protocol grouping prior to the ratio being derived. These individual well to well ratios for each protocol grouping were averaqed and used in the statistical tests which determined whether the changes in [Nai] and [Cai] following drug application were significant. Each value plotted below consisted of at least n=5 well ratios. As an additional control, we induced an acute [Cai] response in some control wells for each plate by adding thapsigargin after the initial measurement. Rapid and large [Cai] changes were detected in each case. To derive concentration values from the fluorescence readings, different, but standard approaches (26, 73), were taken with each dye. Both panels C and D show elevation of ion activity developing within 2-6 hours, and in the most part continuing for 18-24 hours.
b. SBFI/AM—This dual excitation wavelength dye is used in a fluorescent plate scanner. With SBFI/AM, we can treat cells cultured in black (non fluorescent) 96 well plates and measure average [Nai] of the cells in each well. [Nai] is calculated using ratio method and in situ calibration—thus ionophores (monensin and gramidicidin) eliminate the transmembrane gradient so that [Nai] can be altered by changing [Nao].
Comparison of the latency of these apoptotic markers with the ionic responses induced by taxotere and VP-16 at the same doses (10 nM and 10 ug/ml, respectively). […] Since its dual wavelength ultraviolet excitation requirement is impractical for flow cytometry, adherent cells were examined in 96 well culture plates using a fluorescent plate reader (Titertek, Fluoroskan II). […] The ratios of emission intensity at the two excitation wavelengths were calculated for each well, and the average ratio plotted for each time point (FIG. 3.C.; left vertical axis). […]

PC3 cell = test: APO-BRDU endlabelling of DNA fragmentation, flow cytometry, PC3
Experimental: (§1) At the end of the treatment period, cells are trypsinized, resuspended in media, resuspended in PBS, resuspended in iced cold methanol free formaldehyde (1% in PBS) for 15 min, resuspended in 70% ethanol and stored at −20° C. until all samples from a given experiment are ready to run (19, 23). Using a very powerful endlabelling technique (APO-BRDU, Phoenix Flow Systems, California) which gives a dynamic range of fluorescence intensities of up to 1000 fold comparing control cells to cells with advanced DNA fragmentation. Results have been confirmed using positive and negative controls provided by Phoenix Flow Systems, camptothecin treated PC3 cells, and a SNAP treated myocyte line.
(§2) Fixed cells are labeled following kit instructions (two washes with kit buffer, overnight endlabelling, two resuspensions in a rinse buffer, exposure to fluorescent antibody and treatment with propidium iodide and RNAase. Flow cytometry is performed on a Becton/Dickenson FACStar II. Individual fluorescence intensity values for 10,000 cells are obtained for each sample.
To specifically assay DNA fragmentation, a downstream response to apoptosis, uses of a terminal deoxynucleotidyl transferase labeling approach whereby fluorescent moieties are enzymatically attached to all DNA fragment ends. (FIG. 3a) The technique which was used, has a dynamic range of approximately ×1000 (FIG. 2). […]

DU145 cells = test: APO-BRDU endlabelling of DNA fragmentation, flow cytometry, DU145; conditions: for time course of DNA fragmentation: DU 145, 24-hr sample point
Experimental: Chemotherapy, cellular apoptosis, ion activity Cells were cultured and drugs added to media for various times. Fluorescent endlabelling techniques for flow cytometry have been described in detail (23, 97). […] TdT attaches BrdU to DNA ends, following which fluorescent antibodies for BrdU tagged the DNA fragments. Propidium iodide (PI) gives cell cycle position.
At the end of the treatment period, cells are trypsinized, resuspended in media, resuspended in PBS, resuspended in iced cold methanol free formaldehyde (1% in PBS) for 15 min, resuspended in 70% ethanol and stored at −20° C. until all samples from a given experiment are ready to run (19, 23).
as §2
To specifically assay DNA fragmentation, a downstream response to apoptosis, uses of a terminal deoxynucleotidyl transferase labeling approach whereby fluorescent moieties are enzymatically attached to all DNA fragment ends.

LNCaP = test: APO-BRDU endlabelling of DNA fragmentation, flow cytometry, LNCaP
Experimental: as §1, §2
To specifically assay DNA fragmentation, a downstream response to apoptosis, uses of a terminal deoxynucleotidyl transferase labeling approach whereby fluorescent moieties are enzymatically attached to all DNA fragment ends. (FIG. 3a) The technique which was used, has a dynamic range of approximately ×1000 (FIG. 2). This allows for making very quantitative comparisons of DNA fragmentation on a cell to cell basis using flow cytometry, and to further examine the relative drug sensitivity profiles of the 3 cell lines.

COc1cc([C@@H]2c3cc4c(cc3[C@@H](O[C@@H]3O[C@@H]5CO[C@@H](C)O[C@H]5[C@H](O)[C@H]3O)[C@H]3COC(=O)[C@H]23)OCO4)cc(OC)c1O [VP-16, etoposide]
earliest time of increase of mean SBFI ratio ([Nai]) (PC3 cells): 2 h
time course of DNA fragmentation (PC3 cell): continues to develop beyond the 24-hr sample point
time course of DNA fragmentation (DU145 cells): response peaks and subsides
endlabelling response (DU145 cells; Du145, 8 hrs): No response
increase of endlabelling intensity (DNA fragmentation) (DU145 cells; Du145, 24 hrs exposure): 100 fold
DNA fragmentation response (LNCaP; 24 hrs): almost no response
DNA fragmentation response (LNCaP; 44 hrs): significant DNA fragmentation

CC(=O)O[C@@]12CO[C@@H]1C[C@H](O)[C@@]1(C)C(=O)[C@H](O)C3=C(C)[C@@H](OC(=O)[C@H](O)[C@@H](NC(=O)OC(C)(C)C)c4ccccc4)C[C@@](O)([C@@H](OC(=O)c4ccccc4)[C@H]21)C3(C)C [taxotere]
earliest time of increase of mean SBFI ratio ([Nai]) (PC3 cells): 2 h
persistence of ionic elevations ([Nai], [Cai]) (PC3 cells; 10 nMol/L in tissue culture): at least 24 hrs
time by which ionic elevations ([Nai], [Cai]) were significant (PC3 cells; 10 nMol/L in tissue culture): ≤ 6 h
time course of DNA fragmentation (PC3 cell): continues to develop beyond the 24-hr sample point
time course of DNA fragmentation (DU145 cells): response peaks and subsides
DNA fragmentation response (LNCaP; 24 hrs): almost no response
DNA fragmentation response (LNCaP; 44 hrs): significant DNA fragmentation
